{
  "source": "patent US6806257B1",
  "about": "“Flavones as inducible nitric oxide synthase inhibitors, cyclooxygenase-2 inhibitors and potassium channel activators” (priority 1999, dated 2004)",
  "key": {"[1]": {"tested_on": "NF-kB (p65) / IkB", "experiment": "Nuclear p65 / cytosolic IkB western blot in LPS-treated RAW264.7 macrophages", "assay_type": "cell-based, mouse", "conditions": "20 μg/ml, 100 ng/ml LPS for 30 minutes", "description": "(§1) Western blots. Total cellular extract, cytosolic fractions (for IkB) and nuclear fraction (for p65 antibody) were prepared according to Muller et al., Immunobiology, 187, 233-256, 1993 and separated on sodium dodecyl sulfatepolyacrylamide minigels (8% for iNOS or COX-2, and 10% for IkB or p65) and transferred to immobilon polyvinylidene difluoride membranes (Millipore, Bedford, Mass.). The membrane was incubated overnight at 4° C. with 1% bovine serum albumin and then incubated with anti-iNos, COX-2, α-Tubulin monoclonal antibodies (Transduction Laboratories, Lexington, Ky.), anti-IkB or anti-p65 polyclonal antibodies (Santa Cruz Biochemicals, Santa Cruz, Calif.). iNOS, IkB, p65, Cox-2, α-Tubulin were detected by NBT and BCIP staining (Sigma Chemical Co., St. Louis, Mo.).\nNF-kB is a transcription factor that is activated in response to stimulation by LPS, and activation of NF-kB is an essential factor in inducing iNOS gene expression in macrophages (Kim, Y. M., Biochem. Biophys. Res. Commun. 236, 655-660, 1997). To assess the effect of these compounds (20 μg/ml) on early stage of iNOS gene expression, the activation of NF-kB in RAW264.7 macrophages was examined using the electrophoretic mobility shift assay (EMSA) (FIGS. 6i and 6ii)."}, "[2]": {"tested_on": "COX-2", "experiment": "LPS-induced COX-2 expression in RAW264.7 macrophages (western/northern blot)", "assay_type": "cell-based, mouse", "description": "(§2) Cells. RAW264.7, a mouse macrophage cell line, was obtained from American Type Culture Collection. Cells were cultured in RPMI-1640 medium (available from Gibco Life Technology, in Gaithersburg, Md.) supplemented with 2 mM L-glutamine, antibiotics (100 units/ml penicillin-A and 100 units/ml streptomycin) and 10% heat-inactivated fetal bovine serum (Gibco/BRL) and maintained at 37° C in a humidified incubator containing 5% CO2.\nas §1"}, "[3]": {"tested_on": "iNOS", "experiment": "iNOS expression in cultured primary smooth muscle cells from porcine cerebral arteries (immunostaining, Western blot)", "assay_type": "cell-based", "description": "Culture of smooth muscle cells. The entire brain with dura attached was removed and placed in ice-cold sterile phosphate-buffered saline (PBS) (140 mM NaCl, 4 mM KCl, 1 mM KH2PO4, pH 7.4) containing antibiotics (100 U/ml penicillin G potassium, 100 μg/ml streptomycin sulfate, and 0.25 μg/ml fungizone) (Fisher Scientific, Springfield, N.J.). The arteries of the circle of Willis were removed and cleaned of surrounding tissue under a dissecting microscope. The arteries were then placed on a sterile petri dish and sliced longitudinally. The luminal surface was rubbed with a sterile cotton swab to remove endothelial cells. The vessels were placed in DMEM (Dulbecco's Modified Eagle Medium, Life Technologies, Grand Island, N.Y.) containing antibiotics and stored overnight at 4° C. The vessels were cut into approximately 2×2-mm explants, placed in a 10 cm petri dish, covered with DMEM containing antibiotics plus 20% FBS (fetal bovine serum, Sigma Chemical Co., St Louis, Mo.), and placed in an incubator in an atmosphere of 5% CO2 in air at 37° C. […]\nWestern blots. […] Expression of iNOS was detected by NBT and BCIP staining (Sigma Chemical Co., St. Louis, Mo.).\nPhotomicrographs of immunofluorescence at 20× were immediately taken with an Olympus fluorescence microscope fitted with an FITC filter. […]"}, "[4]": {"tested_on": "iNOS", "experiment": "LPS-induced iNOS expression in RAW264.7 macrophages (western/northern blot)", "assay_type": "cell-based, mouse", "description": "as §2, §1\nNorthern blot analysis. Total RNA (20 μg/lane) were separated by electrophoresis on 1.2% agarose gel containing 6.7% formaldehyde and transformed to a Hybond-N nylon membrane (American Life Science) in 20×standard saline citrate (3 M sodium chloride and 0.3 M sodium citrate, pH 7.0). After heating at 80° C. for 2 hours and prehybridization for 4 hours, the filters were hybridized with ^32P-labeled murine iNOS cDNA probes at a concentration of 3×10^6 cpm/ml for 16-18 hours at 42° C. The probe was labeled with [α-32P] dCTP by using Random Primer labeling kit (Stratagene, La Jolla, Calif.). Then, the filters were washed, dried and autoradiographed with Kodak-X-Omat XAR-film using intensifying screens at −80° C."}},
  "note": "“Also recorded” adds a separate entry of the source.",
  "data": [
    {"smiles": "COc1c(O)cc2oc(-c3ccccc3)cc(=O)c2c1O", "note": "[oroxylin A, 5,7-dihydroxy-6-methoxy flavone]", "values": [
      {"measurement": "LPS-induced increase of nuclear p65 and decrease of cytosolic IkB", "setting": "[1]", "value": "significantly inhibited"},
      {"measurement": "LPS-induced COX-2 gene expression (protein and mRNA)", "setting": "[2]", "value": "most potent among the compounds tested; also recorded: inhibited"},
      {"measurement": "LPS-induced iNOS-immunoreactive cultured smooth muscle cells", "setting": "[3]; LPS 10 μg/ml 20 hours, concomitant 60 μM", "value": "drastically decreased; also recorded: inhibition"},
      {"measurement": "LPS-induced iNOS proteins, Western blot", "setting": "[3]; LPS 10 μg/ml, 30 μM and 60 μM", "value": "decreased by oroxylin A in a concentration-dependent manner"},
      {"measurement": "blocking LPS-induced iNOS gene expression, comparison among compounds tested", "setting": "[4]", "value": "most potent among the compounds tested"},
      {"measurement": "LPS-induced iNOS protein", "setting": "[4]; 100 ng/ml LPS, western blot", "value": "inhibited LPS-induced iNOS protein in a concentration-dependent manner"}
    ]}
  ]
}
